We go through 21 compounds from patent US10689383B2, “Optionally fused heterocyclyl-substituted derivatives of pyrimidine useful for the treatment of inflammatory, metabolic, oncologic and autoimmune diseases” (NUEVOLUTION A/S, priority 2014, dated 2020).

The target of assay [1] is T1, human RORγt (Ligand Binding Domain) (Homo sapiens, UniProt P51449).
T1 construct: purchased Crelux (Planegg, Germany) batch no PC5032-1
T1 sequence (P51449 269-508 limits assumed): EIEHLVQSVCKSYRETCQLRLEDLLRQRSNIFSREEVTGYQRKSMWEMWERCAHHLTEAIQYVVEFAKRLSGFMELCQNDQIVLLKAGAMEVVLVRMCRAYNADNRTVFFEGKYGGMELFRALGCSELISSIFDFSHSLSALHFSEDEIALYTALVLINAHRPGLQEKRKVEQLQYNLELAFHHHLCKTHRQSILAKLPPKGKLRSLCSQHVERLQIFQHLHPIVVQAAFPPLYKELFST
In words: Fluorescence Polarization (FP) Assay. To be noted: Fluorescence Polarization (FP) Assay; values given as upper bounds of activity ranges; read-out: FP activity range. Put shortly:
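In vitro FP binding assay monitoring ligand binding within the ligand binding pocket. Probe is a TAMRA-labelled RORγt ligand (MW 910 g/mole); DMSO served as negative control.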
In general terms: Polarisation of emitted light reports the rotation of a fluorescent probe.

The target of assay [2] is T2, yeast Gal4-DNA binding domain fused to the ligand binding domain of human RORγ (Homo sapiens, UniProt P51449).
T2 construct: host or cells: HEK293t
T2 sequence (P51449 269-508 limits assumed): T1 sequence (P51449 269-508 limits assumed)
The assay is described as follows: RORγ Reporter Assay (Gal4). The note with it: RORγ Reporter Assay (Gal4) at 1 μM; values given as lower bounds of ranges. It is filed as cell-based. The protocol: The activity of the compounds was evaluated using a Fluorescence Polarization (FP) Assay and, in most cases, a Th17 Assay and/or RORγ Reporter assay (also referred to as Gal4 assay). The FP assay is an in vitro assay monitoring binding within the ligand binding pocket. The RORγ and the Th17 assays are both cell-based assays monitoring functional activity of the compound assayed.
Cell-based RORγ functional assays were performed using a commercially available assay product (INDIGO Biosciences, State College, Pa., USA; product # IB04001). The RORγ reporter cells are HEK293t cells transfected with one vector that provides high level constitutive expression of a hybrid protein comprised of the yeast Gal4-DNA binding domain fused to the ligand binding domain of human RORγ, and a second vector comprising the firefly luciferase cDNA functionally linked to the upstream activation sequence (UAS) of yeast Gal4. A suspension of RORγ Reporter Cells was prepared using the protocol and culture medium provided in the kit product, and 100 μl of the Reporter Cell suspension was then dispensed into wells of a white, collagen-treated, 96-well assay plate. Concentrated stocks of test compounds were prepared in DMSO, then further diluted using media provided in the kit to generate ‘2×-concentration’ treatment media. 100 μl of medium for each respective treatment concentration dispensed into triplicate assay wells, thereby combining with the reporter cells. All media formulations contained 10% charcoal stripped Fetal Bovine Serum, but are otherwise proprietary to INDIGO Biosciences. Final treatment concentrations for each test compound were 1,000 nM and 100 nM, each with 0.1% residual DMSO. Separate control treatments were media supplemented with vehicle only (0.1% DMSO) to determine the constitutive level of RORγ activity in the reporter cells, and the reference inverse-agonist ursolic acid (f.c. 6,000 nM to 8.2 nM in 3-fold decrements) to establish a positive control inverse-agonist dose response. Assay plates were placed in a 37° C., 5% CO2, 85% humidity incubator for 24 hour. Treatment media were then discarded, 100 μl of luciferase detection reagent was added to each well, and relative light units (RLUs) were quantified from each assay well using a plate reading luminometer. Values of average RLU+/−standard deviation were computed for all treatment sets, followed by the calculations of fold-reduction: [Average RLUVehicle/Average RLUTest Cmpd]. Percent-reduction of RORγ activity in response to respective test compound treatments was calculated: [100*(1−[Ave RLUTest Cmpd/Ave RLUVehicle)] where the theoretical minimum reduction (0% reduction) derives from Vehicle treatment only, no treatment compound.
In general terms: In a reporter assay the amount or activity of a reporter protein is the signal.

As for `Cc1c(N[C@H](CC(C)(C)C)C(N)=O)ncnc1N1CCCC1c1ccc(C(F)(F)F)cc1` (stereo partly drawn) [Example 14, (2R)-4,4-dimethyl-2-[[5-methyl-6-[2-[4-(trifluoromethyl)phenyl]pyrrolidin-1-yl]pyrimidin-4-yl]amino]pentanamide], the IC50 in assay [1] was < 10 µM. For the same compound, the “Gal4 activity range @ 1 μM (% inhibition)” value in assay [2] is >0 % inhibition. As to `COc1ccc(C[C@@H](Nc2ncnc(N3CCCC3c3ccc(C(F)(F)F)cc3)c2F)C(N)=O)cc1` (stereo partly drawn) [Example 17, (2R)-2-[[5-fluoro-6-[2-[4-(trifluoromethyl)phenyl]pyrrolidin-1-yl]pyrimidin-4-yl]amino]-3-(4-methoxyphenyl)propanamide], the IC50 in assay [1] was < 0.5 µM. Moreover, the “Gal4 activity range @ 1 μM (% inhibition)” value in assay [2] is >80 % inhibition. On the same counts, the results for `CC(C)(C)C[C@@H](Nc1ncnc(N2CCOCC2c2ccc(C(F)(F)F)cc2)c1F)C(N)=O` (stereo partly drawn) [Example 20, (2R)-2-[[5-fluoro-6-[3-[4-(trifluoromethyl)phenyl]morpholin-4-yl]pyrimidin-4-yl]amino]-4,4-dimethyl-pentanamide] are < 2 µM and >50 % inhibition.

For `CNC(=O)[C@@H](CC(C)(C)C)N(C)c1ncnc(N2CCCC2c2ccc(C(F)(F)F)cc2)c1F` (stereo partly drawn) [Example 31, (2R)-2-[[5-fluoro-6-[2-[4-(trifluoromethyl)phenyl]pyrrolidin-1-yl]pyrimidin-4-yl]-methyl-amino]-N,4,4-trimethyl-pentanamide], the IC50 in assay [1] is < 10 µM. Also, the “Gal4 activity range @ 1 μM (% inhibition)” value in assay [2] is reported as >0 % inhibition. Take `CC(C)(C)C[C@@H](Nc1ccnc(N2CCCC2c2ccc(C(F)(F)F)cc2)c1F)C(N)=O` (stereo partly drawn) [Example 39, (2R)-2-[[3-fluoro-2-[2-[4-(trifluoromethyl)phenyl]pyrrolidin-1-yl]-4-pyridyl]amino]-4,4-dimethyl-pentanamide]: the IC50 in assay [1] is < 10 µM. Further, the “Gal4 activity range @ 1 μM (% inhibition)” value in assay [2] is on record as >20 % inhibition. For the compound `CC(C)(C)C[C@@H](Nc1ncnc(N2CCCC2c2ccc(C(F)(F)F)cn2)c1F)C(N)=O` (stereo partly drawn) [Example 42, (2R)-2-[[5-fluoro-6-[2-[5-(trifluoromethyl)-2-pyridyl]pyrrolidin-1-yl]pyrimidin-4-yl]amino]-4,4-dimethyl-pentanamide], the IC50 in assay [1] was < 2 µM. Further, the “Gal4 activity range @ 1 μM (% inhibition)” value in assay [2] is >20 % inhibition. For `CC(C)(C)C[C@@H](Nc1ncnc(N2CCCC2c2ccc(OC(C)(C)C)cc2)c1F)C(N)=O` (stereo partly drawn) [Example 43, (2R)-2-[[6-[2-(4-tert-butoxyphenyl)pyrrolidin-1-yl]-5-fluoro-pyrimidin-4-yl]amino]-4,4-dimethyl-pentanamide], the IC50 in assay [1] is < 1 µM. The “Gal4 activity range @ 1 μM (% inhibition)” value in assay [2] is >80 % inhibition. On the same counts, the results for `CC(OC(C)(C)C)[C@@H](Nc1ncnc(N2CCCC2c2ccc(C(F)(F)F)cc2)c1F)C(N)=O` (stereo partly drawn) [Example 51, (2R)-3-tert-butoxy-2-[[5-fluoro-6-[2-[4-(trifluoromethyl)phenyl]pyrrolidin-1-yl]pyrimidin-4-yl]amino]butanamide] are < 1 µM and >80 % inhibition. The like results for `NC(=O)[C@@H](CC1CCOCC1)Nc1ncnc(N2CCCC2c2ccc(C(F)(F)F)cc2)c1F` (stereo partly drawn) [Example 52, (2R)-2-[[5-fluoro-6-[2-[4-(trifluoromethyl)phenyl]pyrrolidin-1-yl]pyrimidin-4-yl]amino]-3-tetrahydropyran-4-yl-propanamide] were, in that order, < 2 µM and >80 % inhibition. Turning to `COc1ccc(CNc2ncnc(N3CCCC3c3ccc(C(F)(F)F)cc3)c2F)cc1OC` (stereo not drawn) [Example 53, N-[(3,4-dimethoxyphenyl)methyl]-5-fluoro-6-[2-[4-(trifluoromethyl)phenyl]pyrrolidin-1-yl]pyrimidin-4-amine], in assay [1], the IC50 was < 1 µM. In addition, in assay [2], the “Gal4 activity range @ 1 μM (% inhibition)” value is >20 % inhibition.

Take `COc1cccc(CNc2ncnc(N3CCCC3c3ccc(C(F)(F)F)cc3)c2F)c1OC` (stereo not drawn) [Example 54, N-[(2,3-dimethoxyphenyl)methyl]-5-fluoro-6-[2-[4-(trifluoromethyl)phenyl]pyrrolidin-1-yl]pyrimidin-4-amine]: in assay [1], the IC50 was < 1 µM. Also, in assay [2], the “Gal4 activity range @ 1 μM (% inhibition)” value is listed as >50 % inhibition. For the compound `Fc1c(NCc2ccc(N3CCOCC3)cc2)ncnc1N1CCCC1c1ccc(C(F)(F)F)cc1` (stereo not drawn) [Example 56, 5-fluoro-N-[(4-morpholinophenyl)methyl]-6-[2-[4-(trifluoromethyl)phenyl]pyrrolidin-1-yl]pyrimidin-4-amine], the IC50 in assay [1] is < 2 µM. Besides, in assay [2], the “Gal4 activity range @ 1 μM (% inhibition)” value is listed as >20 % inhibition. The like results for `O=C1CN(c2ccc(CNc3ncnc(N4CCCC4c4ccc(C(F)(F)F)cc4)c3F)cc2)CCN1` (stereo not drawn) [Example 60, 4-[4-[[[5-fluoro-6-[2-[4-(trifluoromethyl)phenyl]pyrrolidin-1-yl]pyrimidin-4-yl]amino]methyl]phenyl]piperazin-2-one] were, in that order, < 2 µM and >20 % inhibition. Consider `NC(=O)[C@@H](CC1CCNC1=O)Nc1ncnc(N2CCCC2c2ccc(C(F)(F)F)cc2)c1F` (stereo partly drawn) [Example 63, (2R)-2-[[5-fluoro-6-[2-[4-(trifluoromethyl)phenyl]pyrrolidin-1-yl]pyrimidin-4-yl]amino]-3-(2-oxopyrrolidin-3-yl)propanamide], for which the IC50 in assay [1] was < 2 µM. Also, the “Gal4 activity range @ 1 μM (% inhibition)” value in assay [2] was >20 % inhibition.

As for `CC(C)(C)C[C@@H](Nc1ncnc(N2CCCC2c2ccc(C(F)(F)F)cc2)c1F)C1CNCCO1` (stereo partly drawn) [Example 64, N-[(1R)-3,3-dimethyl-1-morpholin-2-yl-butyl]-5-fluoro-6-[2-[4-(trifluoromethyl)phenyl]pyrrolidin-1-yl]pyrimidin-4-amine], the IC50 in assay [1] was < 2 µM. For the same compound, the “Gal4 activity range @ 1 μM (% inhibition)” value in assay [2] was >20 % inhibition. `Cc1nc(C2CCCN2c2ncnc(NCc3ccc(CC(N)=O)cc3)c2F)no1` (stereo not drawn) [Example 314, 2-[4-[[[5-fluoro-6-[2-(5-methyl-1,2,4-oxadiazol-3-yl)pyrrolidin-1-yl]pyrimidin-4-yl]amino]methyl]phenyl]acetamide]: the IC50 in assay [1] was < 10 µM. For `Cc1nnc(C2CCCN2c2ncnc(NCc3ccc(CC(N)=O)cc3)c2F)o1` (stereo not drawn) [Example 315, 2-[4-[[[5-fluoro-6-[2-(5-methyl-1,3,4-oxadiazol-2-yl)pyrrolidin-1-yl]pyrimidin-4-yl]amino]methyl]phenyl]acetamide], in assay [1], the IC50 was < 10 µM. For `Cc1nn(C)cc1C1CCCN1c1ncnc(NCc2ccc(CC(N)=O)cc2)c1F` (stereo not drawn) [Example 317, 2-[4-[[[6-[2-(1,3-dimethylpyrazol-4-yl)pyrrolidin-1-yl]-5-fluoro-pyrimidin-4-yl]amino]methyl]phenyl]acetamide], in assay [1], the IC50 is < 10 µM. With `CC(C)(C)C[C@@H](Nc1ncnc(N2CCC[C@@H]2c2ccc(C(F)(F)F)cc2)c1F)C(=O)O` [Example 325, (2R)-2-[[5-fluoro-6-[(2R)-2-[4-(trifluoromethyl)phenyl]pyrrolidin-1-yl]pyrimidin-4-yl]amino]-4,4-dimethyl-pentanoic acid], the IC50 in assay [1] is < 1 µM. Consider `CS(=O)(=O)c1ccc(Cn2ccc3c(N4CCOC[C@@H]4c4ccc(OC(F)(F)F)cc4)ncnc32)cn1` [Example 329, (3S)-4-[7-[(6-methylsulfonyl-3-pyridyl)methyl]pyrrolo[2,3-d]pyrimidin-4-yl]-3-[4-(trifluoromethoxy)phenyl] morpholine], for which, in assay [1], the IC50 was < 2 µM. Still for that read-out and setting: for `CS(=O)(=O)c1ccc(Cn2ccc3c(N4CCOC[C@@H]4c4ccc(OC(F)(F)F)cc4)ncnc32)nc1` [Example 330, (3S)-4-[7-[(5-methylsulfonyl-2-pyridyl)methyl]pyrrolo[2,3-d]pyrimidin-4-yl]-3-[4-(trifluoromethoxy)phenyl] morpholine] the value was < 2 µM.
